{
  "source": "paper PMC6396121",
  "about": "(ACS Omega, 2019)",
  "key": {"[1]": {"target": "^GDPKRAS^WT (Homo sapiens, UniProt P01116)", "test": "MST binding to GDP-bound KRAS WT", "conditions": "GDP state"}, "[2]": {"target": "^GDPKRAS^G12D (Homo sapiens, UniProt P01116, G12D)", "test": "MST binding to GDP-bound KRAS G12D", "conditions": "GDP state"}, "[3]": {"target": "HRAS^WT (Homo sapiens, UniProt P01112)", "test": "MST binding to HRAS WT", "conditions": "GDP and GTP-bound forms"}, "[4]": {"target": "NRAS^WT (Homo sapiens, UniProt P01111)", "sequence (P01111 1-166)": "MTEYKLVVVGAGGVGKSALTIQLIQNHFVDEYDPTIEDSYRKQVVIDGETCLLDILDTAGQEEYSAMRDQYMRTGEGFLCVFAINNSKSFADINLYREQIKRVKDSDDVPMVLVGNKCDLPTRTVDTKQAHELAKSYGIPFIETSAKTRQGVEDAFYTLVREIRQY", "test": "MST binding to NRAS WT", "conditions": "GDP and GTP-bound forms"}, "[5]": {"target": "T1, Rap1b (Homo sapiens, UniProt P61224)", "T1 sequence (P61224 1-166)": "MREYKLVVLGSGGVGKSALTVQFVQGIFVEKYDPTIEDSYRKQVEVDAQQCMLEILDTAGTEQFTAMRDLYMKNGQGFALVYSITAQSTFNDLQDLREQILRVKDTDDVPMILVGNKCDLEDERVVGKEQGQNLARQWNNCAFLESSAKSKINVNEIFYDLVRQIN", "test": "MST binding to control GTPase Rap1b", "conditions": "control RAS-related small GTPase"}, "[6]": {"test_system": "BHK cells expressing KRAS^G12D", "test": "Western analysis of cell signaling in BHK cells expressing KRAS G12D", "type": "cell-based, hamster"}, "[7]": {"test_system": "BHK cells expressing KRAS^G12V", "test": "Western analysis of cell signaling in BHK cells expressing KRAS G12V", "type": "cell-based, hamster"}, "[8]": {"test_system": "BHK cells expressing HRAS^G12V", "test": "Western analysis of cell signaling in BHK cells expressing HRAS G12V", "type": "cell-based, hamster"}, "[9]": {"target": "KRAS–Raf^RBD interaction (Homo sapiens, UniProt P01116)", "test": "Fluorescence polarization of KRAS binding to GST-Raf RBD", "type": "biochemical", "conditions": "1 μM compound"}, "[10]": {"target": "KRAS^G12D–Raf^RBD interaction (Homo sapiens, UniProt P01116, G12D)", "test": "Pull-down of GFP-KRAS G12D by GST-Raf RBD in cell lysates", "type": "biochemical", "conditions": "1 μM compound"}, "[11]": {"target": "KRAS^G12D–cRaf interaction (Homo sapiens, UniProt P01116, G12D)", "test": "FLIM-FRET of GFP-KRAS G12D with RFP-cRaf", "type": "cell-based, hamster", "conditions": "1 μM compound"}, "[12]": {"target": "KRAS^G12D and RBD interaction (Homo sapiens, UniProt P01116, G12D)", "test": "FLIM-FRET of GFP-KRAS G12D with mCherry-RBD in BHK cells", "type": "cell-based, hamster", "conditions": "1 μM compound for 2 h; ∼1.93 ns untreated, ∼2.3 ns without RBD"}, "[13]": {"target": "HRAS^G12V with Raf^RBD interaction (Homo sapiens, UniProt P01112, G12V)", "test": "FLIM-FRET of GFP-HRAS G12V with mCherry-RBD in BHK cells", "type": "cell-based, hamster", "conditions": "1 μM compound"}, "[14]": {"test_system": "lung cancer cells harboring KRAS^G12D or KRAS^G12V", "test": "CyQUANT proliferation, lung cancer cells with mutant KRAS", "type": "cell-based", "conditions": "5 μM compound, 72 h"}, "[15]": {"test_system": "lung cancer cells with wild-type KRAS", "test": "CyQUANT proliferation, lung cancer cells with wild-type KRAS", "type": "cell-based", "conditions": "5 μM compound, 72 h"}, "[16]": {"test_system": "oral cancer cells with or without mutant HRAS", "test": "CyQUANT proliferation, oral cancer cells", "type": "cell-based", "conditions": "5 μM compound, 72 h"}, "[17]": {"target": "KRASWT (Homo sapiens, UniProt P01116)", "test": "Intrinsic nucleotide exchange", "type": "biochemical", "conditions": "1 μM compound"}, "[18]": {"target": "T2, KRAS and SOS (Homo sapiens, UniProt P01116)", "test": "SOS-mediated nucleotide exchange", "type": "biochemical", "conditions": "1 μM compound"}, "[19]": {"target": "KRAS (Homo sapiens, UniProt P01116)", "test": "Intrinsic nucleotide", "type": "biochemical", "conditions": "1 μM compound"}, "[20]": {"target": "T2, KRAS and SOS", "test": "SOS-mediated nucleotide", "type": "biochemical"}},
  "data": [
    {"smiles": "Cc1nn2c(N3CCN(CCO)CC3)cc(-c3ccccc3)nc2c1-c1ccccc1", "note": "[Compound 11, 2-[4-(8-methyl-3,9-diphenyl-2,6,7-triazabicyclo[4.3.0]nona-2,4,7,9-tetraen-5-yl)piperazin-1-yl]ethanol]", "values": [
      {"measurement": "binding detected by MST", "setting": "[1]", "result": "very weak or no binding"},
      {"measurement": "binding detected by MST", "setting": "[2]", "result": "very weak or no binding"},
      {"measurement": "binding detected by MST", "setting": "[3]", "result": "very weak or no binding"},
      {"measurement": "binding detected by MST", "setting": "[4]", "result": "very weak or no binding"},
      {"measurement": "binding detected by MST", "setting": "[5]", "result": "very weak or no binding"},
      {"measurement": "drop in p-ERK levels", "setting": "[6]; 1 μM, 3 h treatment", "result": "about 50%"},
      {"measurement": "reduction of p-ERK levels", "setting": "[6]; 5 μM, expanded concentration range", "result": "~50", "unit": "%"},
      {"measurement": "concentrations at which p-ERK levels decreased", "setting": "[6]; primary western screen", "result": "≥ 1", "unit": "µM"},
      {"measurement": "effect on p-AKT levels (AKT pathway signaling)", "setting": "[6]; western", "result": "inhibits signaling through the AKT pathway but to a lesser extent than the MAPK pathway"},
      {"measurement": "effect on p-ERK and p-cRaf levels", "setting": "[7]", "result": "dose-dependently decreases"},
      {"measurement": "effect on p-AKT levels", "setting": "[8]; western", "result": "no statistically significant effect"},
      {"measurement": "effect on p-ERK and p-cRaf levels", "setting": "[8]; western, ligand concentration range tested", "result": "less effect"},
      {"measurement": "fold reduction of affinity of KRAS to Raf^RBD", "setting": "[9]", "result": "~13", "unit": "fold"},
      {"measurement": "reduction of polarization (RAS–Raf^RBD interaction)", "setting": "[9]; at 2 μM GST–Raf^RBD", "result": "> 80", "unit": "%"},
      {"measurement": "decrease in GFP–KRAS^G12D levels pulled down", "setting": "[10]", "result": "> 50", "unit": "%"},
      {"measurement": "quenching of GFP fluorescence lifetime (KRAS^G12D–cRaf interaction)", "setting": "[11]", "result": "significantly reduced"},
      {"measurement": "GFP fluorescence lifetime", "setting": "[12]", "result": "~2.02", "unit": "ns"},
      {"measurement": "effect on interaction of HRAS^G12V with Raf^RBD", "setting": "[13]", "result": "opposite albeit small effect"},
      {"measurement": "growth relative to DMSO control", "setting": "[14]", "result": "30–35%"},
      {"measurement": "growth relative to DMSO control", "setting": "[15]", "result": "60–80%"},
      {"measurement": "growth relative to DMSO control", "setting": "[16]", "result": "60–80%"},
      {"measurement": "maximum reduction in rate", "setting": "[17]", "result": "≤ 5", "unit": "%"},
      {"measurement": "maximum reduction in rate", "setting": "[18]", "result": "≤ 5", "unit": "%"},
      {"measurement": "maximum reduction in rate", "setting": "[19]", "result": "≤ 5", "unit": "%"},
      {"measurement": "effect on SOS-mediated nucleotide release rate", "setting": "[20]", "result": "only modestly decreased"},
      {"measurement": "maximum reduction in rate", "setting": "[20]; 1 μM compound", "result": "≤ 5", "unit": "%"}
    ]},
    {"smiles": "N#CC(=C(/N)Sc1ccccc1N)/C(C#N)=C(/N)Sc1ccccc1N", "note": "[Compound U0126, reference compound]", "values": [
      {"measurement": "effect on MAPK signaling", "setting": "[8]; 10 μM", "result": "almost completely abolished"}
    ]}
  ]
}
